Data reported in US4129737A, “Process for the preparation of an 8-alkyl-5-oxo-5,8-dihydro-pyrido(2,3-d)pyrimidine-6-carboxylic acid” (priority 1972, dated 1978).
≈ marks a conversion by molar mass, not a printed value. Read-outs that look alike come from different tables or passages of the source.

Key:
Esch. coli. 95 I.S.M. = assay: Average MIC, solid medium (nutrient agar) dilution method; conditions: Escherichia coli, 18 h, read-out: minimum inhibitory concentration, average
Esch. coli. LRB 45 = assay: as above; conditions: Escherichia coli, 18 h, read-out: minimum inhibitory concentration, average
Pr. mirabilis Nig = assay: as above; conditions: Proteus mirabilis, 18 h, read-out: minimum inhibitory concentration, average
B. pyocyaneus A22 = assay: Minimum inhibitory concentration by agar dilution, B. pyocyaneus A22; type: cell-based; conditions: Pseudomonas aeruginosa, A22, 37° C., 18 hours, read-out: minimum inhibitory concentration (M.I.C.)
Arizona 6211 = assay: Average MIC, solid medium (nutrient agar) dilution method; conditions: 18 h, read-out: minimum inhibitory concentration, average
Pr. mirabilis = assay: Minimum inhibitory concentration by agar dilution, Pr. mirabilis; type: cell-based; conditions: Proteus mirabilis, 37° C., 18 hours, read-out: minimum inhibitory concentration (M.I.C.)
[1] = Absorption and elimination after oral administration; type: in vivo
Streptococcus DM19 = assay: Average MIC, solid medium (nutrient agar) dilution method; conditions: DM19, 18 h, read-out: minimum inhibitory concentration, average
Sh. sonnei = assay: Minimum inhibitory concentration by agar dilution, Sh. sonnei; type: cell-based; conditions: Shigella sonnei, 37° C., 18 hours, read-out: minimum inhibitory concentration (M.I.C.)
Streptococcus = assay: Minimum inhibitory concentration by agar dilution, Streptococcus Group A; type: cell-based; conditions: 37° C., 18 hours, read-out: minimum inhibitory concentration (M.I.C.)
Pr. morganii = assay: Minimum inhibitory concentration by agar dilution, Pr. morganii; type: cell-based; conditions: Morganella morganii, 37° C., 18 hours, read-out: minimum inhibitory concentration (M.I.C.)
[2] = Toxicity, overall statement; conditions: in vivo
Staphylococcus 9144 = assay: Average MIC, solid medium (nutrient agar) dilution method; conditions: Staphylococcus, 9144, 18 h, read-out: minimum inhibitory concentration, average
Pr. morganii A 236 = assay: as above; conditions: Morganella morganii, A236, 18 h, read-out: minimum inhibitory concentration, average
Ps. aeruginosa 72-345 = assay: as above; conditions: Pseudomonas aeruginosa, 72345, 18 h, read-out: minimum inhibitory concentration, average
Pr. vulgaris = assay: Minimum inhibitory concentration by agar dilution, Pr. vulgaris; type: cell-based; conditions: Proteus vulgaris, 37° C., 18 hours, read-out: minimum inhibitory concentration (M.I.C.)
Esch 111 B4 = assay: Average MIC, solid medium (nutrient agar) dilution method; type: cell-based; conditions: 18 h, average of five determinations, read-out: minimum inhibitory concentration, average
[3] = N.A. (nutrient agar, pH 6.8), Table I
[4] = T.S.A. (trypticase soya medium, pH 7.3)

CCn1cc(C(=O)O)c(=O)c2cnc(N3CCNCC3)nc21 [Example VIII, 2-Piperazino-5-oxo-8-ethyl-5,8-dihydro-pyrido(2,3-d)pyrimidine-6-carboxylicacid]
MIC (Esch. coli. 95 I.S.M.): 5.14 µg/mL (≈ 16.9 µM)
MIC (Esch. coli. LRB 45): 2.04 µg/mL (≈ 6.73 µM)
MIC (Pr. mirabilis Nig): 1.58 µg/mL (≈ 5.21 µM)
MIC (B. pyocyaneus A22; [3]): 25 µg/mL (≈ 82.4 µM)
MIC (B. pyocyaneus A22; [4]): 12.5 µg/mL (≈ 41.2 µM)
MIC (Arizona 6211): 1.26 µg/mL (≈ 4.15 µM)
MIC (Pr. mirabilis; [3]): 0.8 µg/mL (≈ 2.64 µM)
MIC (Pr. mirabilis; [4]): 0.8 µg/mL (≈ 2.64 µM)
absorption [1]: absorbed rapidly
elimination [1]: eliminated principally in the urine
urinary concentrations relative to minimum inhibitory concentrations ([1]; even with low doses, majority of Gram negative microorganisms): very much greater than the minimum inhibitory concentrations
MIC (Streptococcus DM19): 100 µg/mL (≈ 330 µM)
MIC (Sh. sonnei; [3]): 0.8 µg/mL (≈ 2.64 µM)
MIC (Sh. sonnei; [4]): 0.8 µg/mL (≈ 2.64 µM)
MIC (Streptococcus; [3]): 25 µg/mL (≈ 82.4 µM)
MIC (Streptococcus; [4]): 25 µg/mL (≈ 82.4 µM)
MIC (Pr. morganii; [3]): 0.8 µg/mL (≈ 2.64 µM)
MIC (Pr. morganii; [4]): 0.8 µg/mL (≈ 2.64 µM)
toxicity [2]: very low toxicity
MIC (Staphylococcus 9144): 6.22 µg/mL (≈ 20.5 µM)
MIC (Pr. morganii A 236): 0.4 µg/mL (≈ 1.32 µM)
MIC (Ps. aeruginosa 72-345): 13.7 µg/mL (≈ 45.3 µM)
MIC (Pr. vulgaris; [3]): 6.2 µg/mL (≈ 20.4 µM)
MIC (Pr. vulgaris; [4]): 1.6 µg/mL (≈ 5.27 µM)
MIC (Esch 111 B4): 1.64 µg/mL (≈ 5.41 µM)
